Experimental data taken from US20040002506A1, “Novel class of cytodifferentiating agents and histone deacetylase inhibitors, and methods of use thereof” (Sloan Kettering Institute for Cancer Research, priority 1999, published 2004).

The molecules below were run on Murine erythroleukemia (MEL) cells (assay: MEL cell differentiation assay (benzidine assay, 5-day culture)). Conditions: Table 2, "No inh" = words.
Type: cell-based
Experimental: Murine erythroleukemia (MEL) cell differentiation. The MEL cell differentiation assay was used to assess the ability of Compound 1 to induce terminal differentiation. MEL cells (logarithmically dividing) were cultured with the indicated concentrations of Compound 1. Following a 5-day culture period, cell growth was determined using a Coulter Counter and differentiation was determined microscopically using the benzidine assay to determine hemoglobin protein accumulation on a per cell basis.
The MEL cell differentiation assay was used to assess the ability of Compound 2 to induce terminal differentiation. MEL cells (logarithmically dividing) were cultured with the indicated concentrations of Compound 2. Following a 5-day culture period differentiation was determined microscopically using the benzidine assay to determine hemoglobin protein accumulation on a per cell basis.
The MEL cell differentiation assay was used to assess the ability of Compound 3 to induce terminal differentiation. MEL cells (logarithmically dividing) were cultured with the indicated concentrations of Compound 3. Following a 5-day culture period differentiation was determined microscopically using the benzidine assay to determine hemoglobin protein accumulation on a per cell basis.
The MEL cell differentiation assay was used to assess the ability of Compound 4 to induce terminal differentiation. MEL cells (logarithmically dividing) were cultured with the indicated concentrations of Compound 4. Following a 5-day culture period differentiation was determined microscopically using the benzidine assay to determine hemoglobin protein accumulaiton on a per cell basis.
All the compounds which were prepared were tested. […] Table 2 is compiled from experiments similar to the experiments described in Examples 7-10 above.

Row | Structure (SMILES) | MEL cell growth (cell count) [cells/ml × 10^−5]
1 | O=C(CCCCCC(C(=O)Nc1ccc2ncccc2c1)C(=O)Nc1ccc2ncccc2c1)NO [Structure 692] | 18.0
2 | O=C(/C=C/c1cccc(C(C(=O)Nc2cccc3cccnc23)C(=O)Nc2cccc3cccnc23)c1)NO [Structure 690] | 2.5
3 | O=C(/C=C/c1cccc(CC(=O)Nc2ccccc2)c1)NO [Structure 689] | 2.0
